The source of these data is ChEMBL document CHEMBL2203270, “POMA analyses as new efficient bioinformatics' platform to predict and optimise bioactivity of synthesized 3a,4-dihydro-3H-indeno[1,2-c]pyrazole-2-carboxamide/carbothioamide analogues” (Bioorg Med Chem Lett, 2012).

The MFC is the lowest tested concentration that kills the fungus rather than only halting it. By Emax is commonly meant the maximal effect, on the per cent scale that the assay sets. As usually defined, the CC50 is the concentration at which the toxic effect on the cells reaches its halfway point. Usually pIC50 stands for the negative decadic logarithm of the IC50, by convention in mol/L.

The subject of one data set is Aspergillus niger. Kind of data set: Antimicrobial activity against Aspergillus niger NCIM 1196 by agar diffusion method. The data set is classed as functional. On the technique in general: A growth-free zone around the sample is the usual read-out of agar diffusion tests.
The subject of the next data set is Candida albicans. Kind of data set: Antimicrobial activity against Candida albicans NCIM 3471 by agar diffusion method. The data set is classed as functional.
In a further data set the test system is Bacillus subtilis. Kind of data set: Antimicrobial activity against Bacillus subtilis NCIM 2439 by disc-diffusion method. It is filed as functional.
The next data set deals with Pseudomonas aeruginosa. Kind of data set: microbe, parasite or virus in culture. The settings on record: ATCC 10145.
A further data set deals with Staphylococcus aureus. Kind of data set: microbe, parasite or virus in culture. The settings on record: NCIM 2079.
The test system of another data set is Escherichia coli. Kind of data set: microbe, parasite or virus in culture. The settings on record: NCIM 5051.
For data set [1], the system named is Mus musculus. Kind of data set: Anticonvulsant activity in mouse assessed as protection against clonic seizure at 100 mg/kg, ip measured at 0.5 hr. It is filed as functional.
In data set [2] the test system is Mus musculus. Kind of data set: Neurotoxicity in mouse assessed as minimal motor impairment at 100 mg/kg, ip measured at 2 hr by rotarod test. The arrangement: dose 100 mg/kg, route intraperitoneal. It is filed as toxicity, organism-based. The settings on record: in vivo. (In the rotarod test animals must keep their balance on a rotating rod.)
Data set [3] concerns Mus musculus. Kind of data set: Neurotoxicity in mouse assessed as minimal motor impairment at 100 mg/kg, ip measured at 4 hr by rotarod test. The data set is classed as toxicity, organism-based. The settings on record: in vivo. The arrangement: dose 100 mg/kg, route intraperitoneal.
In data set [4] the test system is Mus musculus. Kind of data set: Anticonvulsant activity in mouse assessed as protection against clonic seizure at 100 mg/kg, ip measured at 1 hr. It is filed as functional.
Data set [5] has as its system Mus musculus. Kind of data set: Anticonvulsant activity in mouse assessed as protection against clonic seizure at 100 mg/kg, ip measured at 0.25 hr. It is filed as functional.
Data set [6] relates to Mus musculus. Kind of data set: Neurotoxicity in mouse assessed as minimal motor impairment at 100 mg/kg, ip measured at 0.25 hr by rotarod test. The settings on record: in vivo. The arrangement: dose 100 mg/kg, route intraperitoneal. It is filed as toxicity, organism-based.
The test system of data set [7] is Human immunodeficiency virus 2. Kind of data set: Antiviral activity against HIV-2 ROD infected in MT4 cells assessed as protection against virus-induced cytopathicity relative to control. It is filed as functional. The settings on record: Human immunodeficiency virus 2, ISOLATE ROD.
Data set [8] can be described thus: Cytotoxicity against mock-infected human MT4 cells assessed as decrease in cell viability by MTT assay. The data set is classed as cell-based. For orientation: Tetrazolium assays rely on reduction of a dye to a coloured formazan, in cell work by metabolically active cells.
For data set [9], the system named is Mus musculus. Kind of data set: Anticonvulsant activity in mouse assessed as protection against clonic seizure at 100 mg/kg, ip measured at 4 hr. It is filed as functional, organism-based. The arrangement: dose 100 mg/kg.
Data set [10] has as its system Mus musculus. Kind of data set: Neurotoxicity in mouse assessed as minimal motor impairment at 100 mg/kg, ip measured at 1 hr by rotarod test. The data set is classed as toxicity, organism-based. The arrangement: dose 100 mg/kg, route intraperitoneal. The settings on record: in vivo.
For data set [11], the system named is Mus musculus. Kind of data set: Neurotoxicity in mouse assessed as minimal motor impairment at 100 mg/kg, ip measured at 0.5 hr by rotarod test. More on the design: dose 100 mg/kg, route intraperitoneal. The settings on record: in vivo. It is filed as toxicity, organism-based.
The test system of data set [12] is Human immunodeficiency virus 2. Kind of data set: Antiviral activity against HIV-2 ROD infected in MT4 cells assessed as inhibition of virus-induced cytopathicity. It is filed as functional, organism-based. The settings on record: Human immunodeficiency virus 2, ISOLATE ROD.
For data set [13], the system named is Human immunodeficiency virus 1. Kind of data set: Antiviral activity against HIV-1 3B infected in MT4 cells assessed as protection against virus-induced cytopathicity relative to control. The data set is classed as functional. The settings on record: Human immunodeficiency virus 1, 3B.
Data set [14] concerns Mus musculus. Kind of data set: Anticonvulsant activity in mouse assessed as protection against clonic seizure at 100 mg/kg, ip measured at 2 hr. The data set is classed as functional, organism-based. More on the design: dose 100 mg/kg.
Data set [15] deals with Human immunodeficiency virus 1. Kind of data set: Antiviral activity against HIV-1 3B infected in MT4 cells assessed as inhibition of virus-induced cytopathicity. The data set is classed as functional, organism-based. The settings on record: Human immunodeficiency virus 1, 3B.

Molecules are shown by their SMILES. pIC50: −log10 of the molar value. ≈ marks a conversion by molar mass, not a printed value. Calls of active or inactive are those of the source. The calls are words filed in the database; no cut-off is given here. Where only a bound is given, the exact number is not on record here.

Description for Escherichia coli: Antimicrobial activity against Escherichia coli NCIM 5051 by disc-diffusion method
Description for Staphylococcus aureus: Antimicrobial activity against Staphylococcus aureus NCIM 2079 by disc-diffusion method

In the data set with Aspergillus niger, `OC(Cn1cncn1)(Cn1cncn1)c1ccc(F)cc1F` [FLUCONAZOLE] gave a minimum fungicidal concentration (MFC) of 2 µg/mL (≈ 6.53 µM) and an MIC of 2 µg/mL (≈ 6.53 µM). Moreover, in the data set with Candida albicans, the MFC turned out to be 2 µg/mL (≈ 6.53 µM) and the MIC worked out at 1 µg/mL (≈ 3.27 µM).
On to `O=C(O)c1cn(C2CC2)c2cc(N3CCNCC3)c(F)cc2c1=O` [CIPROFLOXACIN], for which the MBC against Bacillus subtilis was 8 µg/mL (≈ 24.1 µM); in the data set on Pseudomonas aeruginosa it was 8 µg/mL (≈ 24.1 µM); in the data set with Staphylococcus aureus, 8 µg/mL (≈ 24.1 µM); in the data set on Escherichia coli it was 4 µg/mL (≈ 12.1 µM). In addition, the MIC with Bacillus subtilis, in the data set with Pseudomonas aeruginosa and in the data set on Staphylococcus aureus was 4 µg/mL (≈ 12.1 µM) throughout.
Regarding `COc1cc2c(cc1OC)C1=NN(C(=O)Nc3ccc(Cl)cc3)C(c3ccc(F)cc3)C1C2` (stereo unspecified), the Activity with Mus musculus [1] (route intraperitoneal) is on record as 100%; with Mus musculus [2] it was “Non-toxic”; in the data set with Mus musculus [3] it was “Non-toxic”; in the data set with Mus musculus [4] (route intraperitoneal) it was 75%; in the data set with Mus musculus [5] (route intraperitoneal) it was 100%; with Mus musculus [6], “Non-toxic”. Moreover, the Activity entry in the data set with Mus musculus [10] and in the data set with Mus musculus [11] was “Non-toxic” throughout. Besides, the Emax in data set [7] and in [13] was 2% each time. Besides, the cytotoxic concentration (CC50) in [8] worked out at 25.8 µM. Further, the result in the data set on Mus musculus [9] and with Mus musculus [14] was inactive. The pIC50 in data set [12] and in [15] was less than 4.59 throughout.
On to `COc1ccc(C2C3Cc4cc(OC)c(OC)cc4C3=NN2C(=O)Nc2ccc(F)c(Cl)c2)cc1OC` (stereo unspecified), for which the Activity with Mus musculus [1] (route intraperitoneal) is 50%; in the data set on Mus musculus [2], “Non-toxic”; in the data set with Mus musculus [3] it was “Non-toxic”; in the data set with Mus musculus [4] (route intraperitoneal), 50%; with Mus musculus [6] it was “Non-toxic”; with Mus musculus [10], “Non-toxic”. The Activity entry with Mus musculus [11] was “Non-toxic”. Further, the outcome in the data set with Mus musculus [5], in the data set with Mus musculus [9] and with Mus musculus [14] was inactive. In addition, the Emax in [7] was found to be 38%; in data set [13] it was 12%. Besides, the CC50 in data set [8] came out at 223 µM. In addition, the pIC50 in [12] and in [15] was less than 3.65 in each case.
As to `COc1cc2c(cc1OC)C1=NN(C(=O)Nc3ccc(Cl)cc3)C(c3ccccc3Cl)C1C2` (stereo unspecified), the Activity with Mus musculus [1] (route intraperitoneal) is 75%; in the data set with Mus musculus [2], “Non-toxic”; with Mus musculus [3] it was “Non-toxic”; with Mus musculus [4] (route intraperitoneal) it was 50%; in the data set with Mus musculus [6], “Non-toxic”; with Mus musculus [10] it was “Non-toxic”. Also, the Activity entry with Mus musculus [11] was “Non-toxic”. For the same compound, the outcome with Mus musculus [5], in the data set with Mus musculus [9] and with Mus musculus [14] was inactive. In addition, the Emax in [7] and in [13] was 2% in each case. The CC50 in data set [8] amounted to 22.9 µM. Besides, the pIC50 in data set [12] and in data set [15] was less than 4.64 in each case.
For the compound `COc1cc2c(cc1OC)C1=NN(C(=O)Nc3ccc(F)c(Cl)c3)C(c3ccccc3)C1C2` (stereo unspecified), the outcome in the data set with Mus musculus [1], with Mus musculus [4], in the data set with Mus musculus [9] and in the data set with Mus musculus [14] was inactive. Also, the Activity entry in the data set with Mus musculus [2] is “Non-toxic”; in the data set with Mus musculus [3], “Non-toxic”; in the data set with Mus musculus [5] (route intraperitoneal) it was 50%; with Mus musculus [6] it was “Non-toxic”; in the data set with Mus musculus [10], “Non-toxic”; in the data set with Mus musculus [11], “Non-toxic”. For the same compound, the values for the Emax in data set [7] and in data set [13] were 10% and 7%, respectively. Further, in data set [8], the CC50 was determined as 35.8 µM. Also, the pIC50 in data set [12] and in data set [15] was less than 4.45 throughout.
